Data on eight compounds can be found in patent publication US4965280A, “Antifungal carbinols” (E. I. Du Pont de Nemours and Company, priority 1989, dated 1990).

SMILES strings stand for the structures. In brackets after ≈: the same amount, converted by molar mass. Read-outs that look alike come from different tables or passages of the source. A value given as a limit tells only on which side of the number the result lay.

Assay [1] deals with Candida albicans ATCC 11651. As to the kind of experiment: In vivo systemic Candida infection in mice, primary assay. More on the design: species or system Candida albicans; CF-1 female mice. As to conditions: Candida albicans, 150 mg/kg per day, read-out: % Survival. In outline: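 CF-1 female mice (20 g, 10 per group) were infected IV with 0.2 ml of 1×10^7/ml C. albicans ATCC 11651, then given test compound subcutaneously at 50 or 150 mg/kg/day at 1 and 6 h post-infection and once daily for three more days. Survival was followed for 21 days against infected untreated mice; ≥70% protection at 14 days was scored active.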

In the next assay the test system is Venturia inaequalis. Description: Example A apple scab. Type of assay: in vivo. The settings on record: read-out: disease control rating, Ex. A. As for the experimental part:
The test compounds were dissolved in acetone in an amount equal to 6% of the final volume and then suspended at a concentration of 100 or 20 ppm in purified water containing 250 ppm of the surfactant TREM 014 (polyhydric alcohol esters). This suspension was sprayed to the point of run-off on apple seedings.

Assay [2] concerns Cercosporidium personatum. As to the kind of experiment: Example B Peanut Late Leafspot. Type of assay: in vivo. The settings on record: Nothopassalora personata, read-out: disease control rating, Ex. B. In outline: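 Spray suspensions at 100 or 20 ppm, prepared from acetone solutions (acetone 6% of final volume) in water carrying 250 ppm of a polyhydric alcohol ester surfactant, were applied to peanut seedlings until run-off.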

The next assay relates to Botrytis cinerea. Description: Example C bean grey mold. The format is in vivo. The settings on record: Botrytis cinerea, 24 h, read-out: disease control rating, Ex. C. In outline:
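Spray rates: 100 and 20 ppm. Vehicle: purified water with 6% acetone by final volume plus 250 ppm TREM 014 (polyhydric alcohol esters). Host plants, broad bean seedlings, were wetted until run-off.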

Assay [3] deals with Erysiphe graminis f. sp. tritici. As to the kind of experiment: Example D wheat powdery mildew. The format is in vivo. The settings on record: Blumeria graminis, 144 h, read-out: disease control rating, Ex. D. As for the experimental part: The test compounds were dissolved in acetone in an amount equal to 6% of the final volume and then suspended at a concentration of 100 or 20 ppm in purified water containing 250 ppm of the surfactant TREM 014 (polyhydric alcohol esters). This suspension was sprayed to the point of run-off on wheat seedlings.

The subject of a further assay is Pyricularia oryzae. As to the kind of experiment: whole plant or invertebrate. Type of assay: in vivo. The settings on record: Pyricularia oryzae, 120 h; for pest or weed control at 100 ppm: read-out: disease control rating, Ex. E, 100 PPM; for pest or weed control at 20 ppm: read-out: disease control rating, Ex. E, 20 PPM.
Assay [4] has as its system Rhizoctonia solani. Description: Example F rice sheath blight. Type of assay: in vivo. The settings on record: Rhizoctonia solani, 144 h, read-out: disease control rating, Ex. F. In outline:
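Foliar run-off spray, rice seedlings: compound at 100 or 20 ppm in aqueous 250 ppm polyhydric alcohol ester surfactant, acetone 6% v/v final.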

A further assay has as its system Puccinia recondita. As to the kind of experiment: Example G wheat leaf rust. As to conditions: read-out: disease control rating, Ex. G. Type of assay: in vivo.
Another assay deals with Phytophthora infestans. As to the kind of experiment: whole plant or invertebrate. Type of assay: in vivo. As to conditions: Phytophthora infestans, in Solanum lycopersicum, read-out: disease control rating, Ex. H, 100 PPM.
Another assay deals with Plasmorpara viticola. Description: Example I grape downy mildew. Type of assay: in vivo. As to conditions: read-out: disease control rating, Ex. I. In outline:
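Grape seedlings sprayed to run-off; test suspension 100 or 20 ppm compound, acetone 6% v/v final, 250 ppm TREM 014 in purified water.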

The next assay relates to Pythium aphanadermatum. Description: Example J cucumber damping off. The format is in vivo. More on the design: key to phytotoxicity entry, Ex. J: P: disease control was not measured due to phytoxicity. As to conditions: 5 kg/ha; for pest or weed control at 5000 g/ha: Pythium, 336 h, read-out: disease control rating, Ex. J. The procedure: […] Seeds and soil were then inoculated with a mixture of sand, cereal and mycelium of the fungus Pythium aphanadermatum, causal agent of cucumber damping off, and incubated in a growth chamber at 30° C. for 14 days. Disease ratings were then made.

Assay [5] has as its system Rhizoctonia solani. Description: Example K cotton blight. As to conditions: 336 h, 5 kg/ha, read-out: disease control rating, Ex. K. The format is in vivo. The procedure:
[…] Seeds and soil were then inoculated with a mixture of sand, cereal and mycelium of the fungus Rhizoctonia solani, causal agent of cotton blight, and incubated in a growth chamber at 30° C. for 14 days. Disease ratings were then made.

In assay [6] the test system is Candida albicans ATCC 11651. Description: In vitro antifungal MIC, microtiter broth dilution. The settings on record: Candida albicans, ATCC11651, 24 h, read-out: MIC values, C. albicans, 30°, 24 hours. For orientation: Broth dilution looks for growth in wells or tubes with falling amounts of substance.
Assay [7] relates to Aspergillus fumigatus ATCC 28214. As to the kind of experiment: In vitro antifungal MIC, microtiter broth dilution. As to conditions: Aspergillus fumigatus, ATCC28214, 24 h, read-out: MIC values, A. fumigatus, 30°, 24 hours.

One may read the MIC as the lowest concentration found to suppress growth. On to `C=C(c1ccc(F)cc1)C(O)(Cn1cncn1)c1ccc(Cl)cc1` (centres unmarked) [Example 3], for which the responders at 150 mg/kg in assay [1] (ATCC11651, 168 h, day 7) was found to be 100%; in assay [1] (ATCC11651, 336 h, day 14), 100%; in assay [1] (ATCC11651, 504 h, day 21) it was 60%. The pest or weed control at 100 ppm in the assay with Venturia inaequalis came to 100%; in assay [2], 100%; with Botrytis cinerea, 93%; in assay [3], 93%; in the assay on Pyricularia oryzae it was 5%; in the assay with Rhizoctonia solani [4] it was 93%. The pest or weed control at 100 ppm in the assay on Puccinia recondita came to 100%; in the assay with Phytophthora infestans, 0%; in the assay on Plasmorpara viticola it was 0%. The pest or weed control at 5000 g/ha in the assay on Pythium aphanadermatum and in the assay with Rhizoctonia solani [5] was 0% in each case. Moreover, the MIC in assay [6] is ≤ 0.4 mg/L; in assay [7] it was 50 mg/L (≈ 145 µM).
In the case of `C=C(c1ccccc1Cl)C(O)(Cn1cncn1)c1ccc(F)cc1` (centres unmarked) [Example 32], the responders at 150 mg/kg in assay [1] (ATCC11651, 168 h, day 7) amounted to 100%; in assay [1] (ATCC11651, 336 h, day 14) it was 90%; in [1] (ATCC11651, 504 h, day 21), 50%. Moreover, the pest or weed control at 100 ppm in the assay with Venturia inaequalis is 100%; in assay [2], 100%; with Botrytis cinerea, 98%; in [3], 95%; in the assay on Pyricularia oryzae, 97%; in the assay with Rhizoctonia solani [4], 33%. In addition, the pest or weed control at 100 ppm in the assay with Puccinia recondita came to 100%; in the assay with Phytophthora infestans it was 0%; in the assay with Plasmorpara viticola, 98%. Further, the pest or weed control at 5000 g/ha in the assay with Pythium aphanadermatum and in the assay with Rhizoctonia solani [5] was 0% in each case. The minimal inhibitory concentration (MIC) in assay [6] is ≤ 0.4 mg/L; in [7], 1.6 mg/L (≈ 4.65 µM).
Turning to `C=C(CN1CC(C)OC(C)C1)C(O)(Cn1cncn1)c1ccc(F)cc1` (centres unmarked) [Example 477], the pest or weed control at 100 ppm amounted to 95% with Venturia inaequalis; 100% in [2]; 76% with Botrytis cinerea; 100% in [3]; 48% in the assay with Pyricularia oryzae; 48% with Rhizoctonia solani [4]. Besides, the pest or weed control at 100 ppm with Puccinia recondita amounted to 100%; in the assay on Phytophthora infestans, 0%; in the assay on Plasmorpara viticola, 0%. The “phytotoxicity entry, Ex. J” value in the assay with Pythium aphanadermatum is listed as “P”. The minimal inhibitory concentration (MIC) in assay [6] is > 100 mg/L.
As to `C=C(c1ccc(F)cc1)C(O)(Cn1cncn1)c1ccccc1` (centres unmarked) [Example 656], the responders at 150 mg/kg was determined as 100% in assay [1] (ATCC11651, 168 h, day 7); 90% in [1] (ATCC11651, 336 h, day 14); 40% in assay [1] (ATCC11651, 504 h, day 21). Further, the pest or weed control at 100 ppm with Venturia inaequalis is 93%; in assay [2], 100%; in the assay on Botrytis cinerea, 88%; in assay [3], 97%; with Pyricularia oryzae, 0%; in the assay with Rhizoctonia solani [4] it was 50%. Further, the pest or weed control at 100 ppm in the assay on Puccinia recondita is 100%; in the assay on Phytophthora infestans, 0%; with Plasmorpara viticola, 20%. Moreover, the pest or weed control at 5000 g/ha in the assay on Pythium aphanadermatum is 0%. The MIC is ≤ 0.4 mg/L in assay [6] and 12.5 mg/L (≈ 40.4 µM) in [7].
For the compound `C=C(c1ccc(F)cc1)C(O)(CC)Cn1cncn1` (centres unmarked) [Example 668], the responders at 150 mg/kg in [1] (ATCC11651, 168 h, day 7) worked out at 70%; in assay [1] (ATCC11651, 336 h, day 14) it was 10%; in assay [1] (ATCC11651, 504 h, day 21), 0%. The pest or weed control at 20 ppm with Venturia inaequalis came out at 65%; in [2], 17%; in the assay on Botrytis cinerea, 31%; in [3], 31%; with Pyricularia oryzae it was 1%; with Rhizoctonia solani [4] it was 0%. Moreover, the pest or weed control at 20 ppm with Puccinia recondita came out at 100%. Further, the pest or weed control at 100 ppm in the assay on Botrytis cinerea came to 76%; in the assay on Pyricularia oryzae it was 1%; with Rhizoctonia solani [4], 0%; in the assay with Phytophthora infestans, 22%; with Plasmorpara viticola it was 31%. Besides, the MIC in assay [6] amounted to 0.4 mg/L (≈ 1.53 µM); in [7] it was 50 mg/L (≈ 191 µM).
As for `C=C(c1ccc(Cl)cc1)C(O)(Cn1cncn1)c1ccc(Cl)c(Cl)c1` (centres unmarked) [Example 675], the responders at 150 mg/kg worked out at 100% in assay [1] (ATCC11651, 168 h, day 7); 60% in assay [1] (ATCC11651, 336 h, day 14); 0% in assay [1] (ATCC11651, 504 h, day 21). The pest or weed control at 20 ppm in the assay on Venturia inaequalis turned out to be 40%; in [2] it was 0%; in the assay on Botrytis cinerea it was 42%; in [3], 44%; in the assay on Pyricularia oryzae, 0%; with Rhizoctonia solani [4], 0%. Further, in the assay on Puccinia recondita, the pest or weed control at 20 ppm turned out to be 16%. For the same compound, the pest or weed control at 100 ppm in the assay with Botrytis cinerea stood at 30%; with Pyricularia oryzae, 0%; in the assay with Rhizoctonia solani [4], 62%; in the assay with Phytophthora infestans, 0%; in the assay on Plasmorpara viticola, 69%. For the same compound, the figures for the MIC in assay [6] and in assay [7] were 0.1 mg/L (≈ 0.253 µM) and 25 mg/L (≈ 63.3 µM), respectively.
For `C=C(c1ccc(C)cc1)C(O)(Cn1cncn1)c1ccc(F)cc1` (centres unmarked) [Example 721], the responders at 150 mg/kg in assay [1] (ATCC11651, 168 h, day 7) came to 100%; in [1] (ATCC11651, 336 h, day 14), 30%; in assay [1] (ATCC11651, 504 h, day 21), 30%. The pest or weed control at 100 ppm was found to be 73% in the assay on Venturia inaequalis; 89% in assay [2]; 95% with Botrytis cinerea; 94% in assay [3]; 18% with Pyricularia oryzae; 100% in the assay with Rhizoctonia solani [4]. Also, the figures for the pest or weed control at 100 ppm in the assay on Puccinia recondita, in the assay on Phytophthora infestans and with Plasmorpara viticola were 100%, 0% and 0%, respectively. Further, the “phytotoxicity entry, Ex. J” value with Pythium aphanadermatum is reported as “P”. For the same compound, the minimum inhibitory concentration (MIC) in [6] was found to be 0.4 mg/L (≈ 1.24 µM); in assay [7], 12.5 mg/L (≈ 38.7 µM).
As for `C=C(c1ccccc1C(F)(F)F)C(O)(Cn1cncn1)c1ccc(F)cc1` (centres unmarked) [Example 724], the responders at 150 mg/kg in assay [1] (ATCC11651, 168 h, day 7) amounted to 100%; in assay [1] (ATCC11651, 336 h, day 14), 90%; in [1] (ATCC11651, 504 h, day 21) it was 40%. The pest or weed control at 100 ppm in the assay with Venturia inaequalis is 100%; in assay [2], 100%; in the assay on Botrytis cinerea it was 95%; in assay [3] it was 100%; with Pyricularia oryzae, 63%; in the assay on Rhizoctonia solani [4], 100%. The pest or weed control at 100 ppm in the assay with Puccinia recondita was 100%; in the assay with Phytophthora infestans, 0%; with Plasmorpara viticola, 0%. Besides, the pest or weed control at 5000 g/ha in the assay on Pythium aphanadermatum turned out to be 0%. Besides, the minimal inhibitory concentration (MIC) in assay [6] and in [7] was 0.4 mg/L (≈ 1.06 µM) throughout.
